We go through four molecules from patent US20050090524A1, “Novel adamantane derivatives” (priority 2002, published 2005).

Counter-ions that a name gives are not always drawn.

The target in the assay is T1, P2X7 receptor (Homo sapiens, UniProt Q99572).
T1 construct: 200 μl of a suspension of THP-1 cells; endogenous in cells; host or cells: THP-1 cells
T1 sequence (Q99572 1-595): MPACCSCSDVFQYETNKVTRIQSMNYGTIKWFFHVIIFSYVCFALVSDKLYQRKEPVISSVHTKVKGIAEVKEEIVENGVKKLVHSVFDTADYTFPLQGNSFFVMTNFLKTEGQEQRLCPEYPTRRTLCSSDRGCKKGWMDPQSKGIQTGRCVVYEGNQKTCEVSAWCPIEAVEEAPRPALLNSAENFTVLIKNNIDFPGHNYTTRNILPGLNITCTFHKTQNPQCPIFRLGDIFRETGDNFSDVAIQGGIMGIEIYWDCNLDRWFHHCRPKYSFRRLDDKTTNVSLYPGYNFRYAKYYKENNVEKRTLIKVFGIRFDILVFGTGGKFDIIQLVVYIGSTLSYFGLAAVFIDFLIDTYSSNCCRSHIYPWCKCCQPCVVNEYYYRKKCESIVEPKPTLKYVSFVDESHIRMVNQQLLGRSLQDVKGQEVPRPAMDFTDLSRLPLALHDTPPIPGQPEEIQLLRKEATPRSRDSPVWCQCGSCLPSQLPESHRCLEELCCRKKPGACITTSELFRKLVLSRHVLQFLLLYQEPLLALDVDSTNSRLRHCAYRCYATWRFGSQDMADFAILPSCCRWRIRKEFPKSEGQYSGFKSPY
The assay can be described thus: P2X7 receptor antagonist test: bbATP-induced ethidium bromide fluorescence in THP-1 cells. Type of assay: cell-based. The following applies: bbATP agonist, 37° C. for one hour, negative logarithm of concentration reducing bbATP agonist activity by 50%. From the text: Certain compounds such as benzoylbenzoyl adenosine triphosphate (bbATP) are known to be agonists of the P2X7 receptor, effecting the formation of pores in the plasma membrane (Drug Development Research (1996), 37(3), p.126). Consequently, when the receptor is activated using bbATP in the presence of ethidium bromide (a fluorescent DNA probe), an increase in the fluorescence of intracellular DNA-bound ethidium bromide is observed. The increase in fluorescence can be used as a measure of P2X7 receptor activation and therefore to quantify the effect of a compound on the P2X7 receptor.
In this manner, each of the title compounds of the Examples was tested for antagonist activity at the P2X7 receptor. Thus, the test was performed in 96-well flat bottomed microtitre plates, the wells being filled with 250 μl of test solution comprising 200 μl of a suspension of THP-1 cells (2.5×10^6 cells/ml) containing 10^−4M ethidium bromide, 25 μl of a high potassium buffer solution containing 10^−5M bbATP, and 25 μl of the high potassium buffer solution containing 3×10^−5M test compound. The plate was covered with aplastics sheet and incubated at 37° C. for one hour. The plate was then read in a Perkin-Elmer fluorescent plate reader, excitation 520 nm, emission 595 nm, slit widths: Ex 15 nm, Em 20 nm. For the purposes of comparison, bbATP (a P2X7 receptor agonist) and pyridoxal 5-phosphate (a P2X7 receptor antagonist) were used separately in the test as controls. From the readings obtained, a pIC50 figure was calculated for each test compound, this figure being the negative logarithm of the concentration of test compound necessary to reduce the bbATP agonist activity by 50%.

`O=C(NCC12CC3CC(CC(C3)C1)C2)c1c(Cl)ccc2nc(CN3CCNCC3)ccc12` [Example 170, N-(1-Adamantylmethyl)-6-chloro-2-(piperazin-1-ylmethyl)quinoline-5-carboxamide Hydrochloride] gave a half-maximal inhibitory concentration (IC50) of 0.0263 µM. This lies in the double-digit nanomolar range. For the molecule `O=C(CC12CC3CC(CC(C3)C1)C2)Nc1c(Cl)ccc2nc(CN3CCN(CCO)CC3)ccc12` [Example 196, 2-(1-Adamantyl)-N-(6chloro-2-{[4-(2-hydroxyethyl)piperazin-1-yl]methyl}quinlolin-5-yl)acetamide], the IC50 is 0.0186 µM. The IC50 values of the last two molecules are within 1.5-fold of each other. The molecule `Cc1ccc2nc(CCNCCCO)ccc2c1NC(=O)CC12CC3CC(CC(C3)C1)C2` [Example 205, 2-(1-Adamantyl)-N-(2-{2-[(3-hydroxypropyl)amino]ethyl}-6-methylquinolin-5-yl)acetamide Dihydrochloride] showed an IC50 of 0.0178 µM. The IC50 values of the last two molecules are within 1.5-fold of each other. With `CNCCCN(C)c1ccc2c(C(=O)NCC34CC5CC(CC(C5)C3)C4)c(Cl)ccc2n1` [Example 208, N-(1-Adamantylmethyl)-6-chloro-2-{methyl[3-(methylamino)propyl]amino}quinoline-5-carboxamide], the concentration for half-maximal inhibition (IC50) is 0.0355 µM.

As usually defined, the IC50 is the midpoint of a concentration-inhibition curve. Lower therefore signals greater potency.
